Results taken from a melting point compilation (Tetko et al.; mined from patent text by program, amines drawn as free bases though some values may be those of a salt).

Point of comparison: `COc1ccc(CN2C(=O)C(O)(c3cc(CO)ccc3Cl)c3cc(Cl)ccc32)c(OC)c1` (configuration not stated), melting point 107 °C. Against it:
- COCC(=O)NCc1cccc(-c2csc(N=C(N)N)n2)n1 — higher, 195 to 196 °C
- COc1cc(OC)nc(Oc2ccc3ccccc3c2C(=O)OCC=NOCC=CCl)n1 — lower, 77 to 83 °C
- O=C(Nc1ccc(Cl)nc1)c1ccccc1 — higher, 118 to 120 °C
- NC(=O)C1CCCc2c1c1cc(OCCCC(=O)O)ccc1n2Cc1ccccc1 (configuration not stated) — higher, 199 to 200 °C
- COc1ccc(-n2cnnc2S(C)(=O)=O)cc1 — higher, 191 °C
- CC1(C)CCSc2cc(C(=O)Nc3ccc(C(=O)O)cc3)ccc21 — higher, 274 to 276 °C
- Fc1cccc2c(NCCc3cccs3)ccnc12 — higher, 157 to 158 °C
- O=C(c1ccc(-c2ccc(-c3ccc(-c4ccc(C(=O)c5c(F)c(F)c(F)c(F)c5F)s4)s3)s2)s1)c1c(F)c(F)c(F)c(F)c1F — higher, 291 to 294 °C
- COC(=O)NC1CC(=O)N(c2cc(Cl)cc(Cl)c2)C1=O (configuration not stated) — higher, 136 to 138 °C
- CC(=O)Nc1ccc(OCC2CCCC(OC(CCn3ccnc3)c3ccc(F)cc3)O2)cc1 (configuration not stated) — higher, 133 to 135 °C
- COc1ccc(C(=O)C2CCCCC2)c(Cl)c1Cl — lower, 97 to 98 °C
- CSC1CC(=O)N1Cc1ccccc1 (configuration not stated) — lower, 26 to 28 °C
- COc1nn(CC(C)=O)c(=O)s1 — lower, 66 to 67 °C
- O=C(O)Cc1ccc2c(c1)sc1cc(Cl)ccc12 — higher, 198 to 200 °C
- CCCn1nc2c(N)nc3c(c2c1CCCc1cc(-c2cccnc2)no1)CCCC3 — higher, 168 to 170 °C
- CCOC(=O)c1ncn2c1C(C)N=C(c1ccccc1F)c1cc(C#C[Si](C)(C)C)ccc1-2 (configuration not stated) — higher, 186 to 187 °C
- CC1(N2C(=O)c3cccc(NC(=O)c4cccc(Cl)c4)c3C2=O)CCC(=O)NC1=O (configuration not stated) — higher, 283 to 285 °C
- CC(C)(C)c1cc(C(=O)NCCc2cccc([N+](=O)[O-])c2)cc(C(C)(C)C)c1O — higher, 195 to 197 °C
- COc1ccc2c(c1)sc1nc(CO)cn12 — higher, 202 to 205 °C
- CS(=O)(=O)c1ccc(-c2nn(CCCc3ccccc3)c(=O)cc2-c2ccc(Cl)cc2)cc1 — lower, 70.2 to 71.6 °C
- CN(C)c1ccccc1CS(=O)c1nccn1-c1ccc(N)cn1 (configuration not stated) — higher, 140 to 143 °C
- Cc1cc(Cl)c2cc(O)ccc2n1 — higher, 233 °C
- COc1ccccc1OCC(O)CN1CCCC(Cn2c(=O)[nH]c3ccc(Cl)cc32)C1 (configuration not stated) — higher, 167 °C
- CCOC(=O)c1ccc(CN(C(C)=O)C(=O)OC(C)(C)C)cc1 — lower, 96 to 97 °C
- CC(=O)NCC=C(c1ccc(-c2ccccc2)cc1)c1ccc(-c2ccccc2)cc1 — higher, 246 to 249 °C
- CCc1cccc2nc(N[C@@H](CC(C)C)C(=O)OC)oc(=O)c12 — lower, 74 to 76 °C
- COCc1nnc(N)s1 — higher, 177 to 179 °C
- CCCCc1nc2c(N)nc3cc(-c4ccccc4)ccc3c2n1CC(C)C — higher, > 250 °C
- COc1cc(Nc2nccc(-c3cn(S(=O)(=O)c4ccccc4)c4ccccc34)n2)cc(OC)c1OC — higher, 202 °C
- CCCCCC(CC(=O)Nc1cc(CNC(N)=O)ccc1C(C)(C)C)c1ccc(OC)cc1OC (configuration not stated) — higher, 112 to 113 °C
- CC(=O)c1cccc(NC(=O)C=C(C)Cl)c1 — higher, 152 °C
- Cc1ccc(N2N=C3c4cc(CCO)sc4CCC3CC2=O)cc1 (configuration not stated) — higher, 159 to 160 °C
- CCOc1ccc(-c2ccc3c(c2)C=C(C(=O)O)CCN3C=O)cc1F — higher, 220 to 222 °C
- C=CCNC(=O)c1ccccc1I — lower, 105 to 106 °C
- C=CCN1CCc2cc(OC)c(O)cc2C1Cc1ccc(OC)c(OC)c1 (single isomer, unassigned; (+)) — higher, 108 to 112 °C
- CS(=O)(=O)NCCn1nccc1-c1ccc(Oc2ccc(F)cc2)cc1 — lower, 96 to 98 °C
- COc1ccc2c(c1)C(=O)CC21CCCC1 — lower, 80 °C
- CCc1[nH]n(C2CCCC2)c2nc(-c3ccc4c(c3)CCO4)nc(=O)c1-2 — higher, 253 to 254 °C
- CC(C)(C)c1cc(C=O)ccc1O — higher, 142 °C
- CCOC(=O)C(=CNc1cccc2c1CCC2)C(=O)OCC — lower, 25 to 30 °C
- COC(=O)c1ccc(C#Cc2ccccc2F)o1 — not separable, 106 to 108 °C
- CCCCCCC(=N)NC(=S)Nc1ccc(OC)cc1 — lower, 70 to 72 °C
- CC(C)n1c(=O)n(C)c(=O)c2c(S(=O)(=O)CCCO)n(C3Cc4ccccc4C3)cc21 — higher, 171 to 172 °C
- CNS(=O)(=O)c1sccc1CCl — lower, 52 to 53 °C
- CCNC(=O)c1ccc(N2CCN(Cc3cnc4c(c3)[nH]c(=O)n3cccc43)CC2)cc1 — higher, 252 to 260 °C
- N#Cc1c(C(=O)O)nn(-c2ccc(Cl)cc2Cl)c1-c1ccc(Cl)cc1 — higher, 132 to 137 °C
- Cc1ccc(C(=O)c2ccc([N+](=O)[O-])cc2)cc1 — higher, 122 to 123 °C
- CC1(C)C(=O)OC2=C1CC(OS(C)(=O)=O)C=C2 (configuration not stated) — higher, 120 to 121 °C
- O=C(O)[C@@H](Cc1ccccc1)Oc1c(Br)cc(-c2c3ccccc3c(Br)c3sc4ccccc4c23)cc1Br — higher, 140 to 142 °C
- CC(=O)Nc1ccc(/C=C/C(=O)NCC(=O)N(C)c2ccc(Cl)c(CO)c2Cl)cn1 — higher, 207 to 209 °C
- CS(=O)(=O)Oc1ccc([N+](=O)[O-])c(O)c1 — higher, 123 to 124 °C
- Cc1cc(-c2nncc3c(C(C)(C)C)c(OCc4ccncc4)nn23)no1 — higher, 119 to 121 °C
- CC(=O)Nc1cc(C(F)(F)F)ccc1-c1cc(Oc2ccc3cccnc3c2)ncn1 — higher, 137 to 138 °C
- CCOC(=O)c1ncc2[nH]c3c(c2c1COC)C(=O)CCC3 — higher, 249 to 250 °C
- c1cc2c3c(cccc3c1)C(NOCCCn1ccnc1)=N2 — lower, 102 to 104 °C
- COc1ccc(Cn2c(=S)[nH]c(=O)c3[nH]c(C(C)C)nc32)cc1OCc1ccccc1 — higher, 280 to 281 °C
- O=C(O)C1Cc2c(n(Cc3ccccc3)c3ccccc23)CN1 (configuration not stated) — higher, 252 to 253 °C
- CCCCCCCCCCCCCCCCCC(=O)N1CCN(c2cc(N3CCCC3)nc(N3CCCC3)n2)CC1 — lower, 102 to 104 °C
- COc1cc([C@H](C)O)ccc1OCCCN1CCC(c2noc3cc(F)ccc23)CC1 — higher, 138 to 139 °C
- COc1cc(-c2ncc(C(F)(F)F)cc2Cl)ccc1C#N — higher, 135 to 137 °C
- CCOC(=O)c1cc2n(CC)c3ccc(Cl)cc3c(=O)n2n1 — higher, 256 to 257 °C
- O=C(Nc1ccc(OCCN2CCOCC2)c2ccccc12)c1cccc(Br)c1 — lower, 90 to 93 °C
- CCCCCCNc1nc[nH]c2nccc1-2 — higher, 147 to 148 °C
- COc1ccc(NC(=O)OCCCl)c(OC)c1NC(=O)OCCCl — lower, 105 °C
- COc1cc2c3nn(-c4ccc(Cl)cc4)c(=O)c-3c[nH]c2c(OC)n1 — higher, 318 to 321 °C
- CN(c1ccncc1)c1csc2ncccc12 — higher, 143 to 145 °C
- OCc1cccc(OCc2ccc3ccccc3n2)c1 — lower, 70 °C
- COc1ccccc1NC(=O)Nc1ccc(N2CCN(C(=O)Nc3cc(OCCO)ccc3Cl)CC2)cc1 — higher, 179 to 180 °C
- C=CC(=O)N1CCc2cc(OC)c(OC)cc2C12CCC(C(=O)OCC)(C(=O)OCC)CC2C1c2cc(OC)c(OC)cc2CCN1C(C)=O (configuration not stated) — higher, 162 to 165 °C
- CC(=O)NC[C@H]1CN(c2ccc(N3CCC(O)(CC#N)CC3)c(F)c2)C(=O)O1 — higher, 162 to 164 °C
- Cc1nnc(CNc2c(C)cccc2C)s1 — lower, 68 to 69 °C
- O=C(O)CCc1c(C(=O)O)[nH]c2cc(-c3ccccc3)ccc12 — higher, 238 to 239 °C
- Cc1noc(NS(=O)(=O)c2ccc(Cl)c(Cl)c2Cl)c1Br — higher, 110 to 113 °C
- O=C(O)C(Cc1ccccc1)Nc1nccc(-c2ccc(OCc3ccccc3)cc2)n1 (configuration not stated) — higher, 174 °C
- CC(=O)Nc1cc2c(c(C(=O)O)c1)NCCO2 — higher, 253 °C
- C#CCc1ccc2c(C)c(C(=O)O)c(=O)oc2c1 — higher, 172 °C
- COc1ccccc1Oc1ccc(Br)cc1OC — lower, 58 to 60 °C
- COc1ccc(C(=O)O)c(Oc2ccc(C(F)(F)F)cc2NC(=O)Nc2cc(C(F)(F)F)cc(C(F)(F)F)c2)c1 — higher, 248 °C
- CNc1cc(Cc2c(-c3ccc(OCCN4CCCC4)cc3)sc3cc(O)ccc23)ccc1CN1CCCC1 — lower, 99 to 102 °C
- O=C(O)C1CCCc2c(n(Cc3ccc(Cl)cc3)c3ccc(F)cc23)C1 (configuration not stated) — higher, 185 to 186 °C
- CCN1CC=CC2=C1N1CN(OC)C=C1N=N2 — higher, 167 to 168 °C
- O=C1CC(C(=O)O)NN1 (configuration not stated) — higher, 188 to 190 °C
- CN1C(=O)C(c2c[nH]c3ccccc23)=C(c2cn(C)c3ccccc23)C1=O — higher, 168 to 171 °C
- Cc1nc(-c2cc(C(C)(C)C)c(O)c(C(C)(C)C)c2)no1 — higher, 126 to 127 °C
- O=CNN(Cc1ccccc1[N+](=O)[O-])c1ccccc1 — higher, 140 to 142 °C
- COc1nc2cc(C)c(Cl)c(N)c2nc1OC — higher, 169 to 170 °C
- CCOCCOc1ccc(-c2ccc3c(c2)C=C(C(=O)Nc2ccc(CN(C)C4CCOCC4)cc2)CCS3(=O)=O)cc1F — higher, 212 to 214 °C
- O=C1CCC(N2Cc3cc(CNC(=O)c4ccccc4)ccc3C2=O)C(=O)N1 (configuration not stated) — higher, 266 to 268 °C
- CCC(C(=O)N(C)C)C(C#N)(c1ccccc1)c1ccccc1 (configuration not stated) — higher, 170 to 172 °C
- COC(=O)c1cc(-c2ccc3cc4c(cc3c2)C(C)(C)CCC4(C)C)c[nH]1 — higher, 140 to 143 °C
- Oc1ccc(C2CCOCC2)cc1Cl — higher, 123 to 125 °C
- CN1C[C@H](CCCl)Oc2ncccc2C1=O — lower, 61 to 62 °C
- O=CNc1nc(S)n[nH]1 — higher, 260 to 262 °C
- N#Cc1c2ccccc2c(-c2cc(Br)c(O)c(Br)c2)c2c1sc1ccccc12 — higher, 321 to 323 °C
- Cn1c(=O)[nH]c(=O)c2c1ncn2CC1OCCO1 — higher, 276 to 278 °C
- CN1C(=O)C=C(c2ccc3c(c2)CCCC3)C1=O — not separable, 104 to 107 °C
- NC(=O)c1cccc(-c2c(F)ccc3cc(Cc4cccc(C(F)(F)F)c4)sc23)c1 — higher, 166 to 167 °C
- CC(C)Nc1cccnc1N1CCN(C(=O)c2ccc(C(=O)Nc3nncs3)cn2)CC1 — higher, 260 to 262 °C
- COc1ccc2c(C(=S)N(C)CC(=O)O)cccc2c1C(F)(F)C(F)(F)F — higher, 164 to 165 °C
- CNCC1=C(C#N)C(c2cccc(C#N)c2Br)c2c[nH]nc2N1 (configuration not stated) — higher, 258 °C
- N#Cc1ccc(NC2=C(Cl)C(=O)c3ccccc3C2=O)cc1 — higher, 188 to 189 °C
